These results are taken from patent US20110071150A1 (priority 2009, published 2011).

This test relates to Jurkat IL-2 Production. In words: Jurkat IL-2 Production Assay. It counts as cell-based. Conditions: Homo sapiens, Jurkat cell (ATCC), 18-20 h incubation, PHA 5 μg/mL with 1% FBS, or PMA/Ionomycin with 30% FBS (table does not say which). The method, then: Jurkat IL-2 Production Assay
Cell: Jurkat cell (ATCC) was grown in RPMI 1640 with 10% FBS and 1% penicillin/streptomycin. The cell density was kept at 1.2-1.8×10^6/mL in culture flask before seeding into culture plate, and the cell density in the plate was 0.5×10^6/[…]/well.
Culture media: RPMI 1640 with 1% FBS or 30% FBS for high serum assay.
Test compound: serial dilution was done in 100% DMSO, and intermediate dilution was done with RPMI 1640 medium with 1% FBS. The DMSO final concentration in culture well was 0.25%.
Stimulant: PHA (Sigma#L9017-10MG) was used for the assay with 1% FBS in culture medium, and added after 10 minutes exposure of cell to compound/DMSO. The PHA final concentration in culture well was 5 μg/mL. PMA (Sigma# P-8139 5MG)/Ionomycin (Sigma# 10634-5MG) was used for the assay with 30% FBS in culture medium, and added at same time point as the 1% FBS culture assay. The final concentration of PMA was 50 ng/mL, and Ionomycin final concentration was 500 ng/mL.
Incubation: at 37° C. with 5% CO2 and 95% humidity for 18 h˜20 h.
IC50: IC50 was calculated with the data analysis software XLfit4, General Pharmacology model 251.

As usually defined, the IC50 is the midpoint of a concentration-inhibition curve. Low readings indicate higher potency, high ones lower potency. Consider `COC(=O)c1ccc(-c2cc3cc(-c4cc(C(F)(F)F)nn4C)ccc3[nH]2)c(C)c1` [Example 39, 3-Methyl-4-[5-(2-methyl-5-trifluoromethyl-2H-pyrazol-3-yl)-1H-indol-2-yl]-benzoic acid methyl ester], for which the midpoint of inhibition, the IC50, lay at 148 nM.
`Cc1cc(C(=O)O)ccc1-c1cc2cc(-c3cc(C(F)(F)F)nn3C)ccc2[nH]1` [Example 40] gave an IC50 of 728 nM.
Molecule `Cn1nc(C(F)(F)F)cc1-c1ccc2[nH]c(-c3cccc(Cl)c3Cl)cc2c1` [Example 41, 2-(2,3-Dichloro-phenyl)-5-(2-methyl-5-trifluoromethyl-2H-pyrazol-3-yl)-1H-indole] had an IC50 of 486 nM.
In turn, `Cn1nc(C(F)(F)F)cc1-c1ccc2[nH]c(-c3cc(F)ccc3Cl)cc2c1` [Example 42, 2-(2-Chloro-5-fluoro-phenyl)-5-(2-methyl-5-trifluoromethyl-2H-pyrazol-3-yl)-1H-indole] yielded an IC50 of 204 nM.
Molecule `COc1nccc(-c2cc3cc(-c4cc(C(F)(F)F)nn4C)ccc3[nH]2)c1Cl` [Example 43, 2-(3-Chloro-2-methoxy-pyridin-4-yl)-5-(2-methyl-5-trifluoromethyl-2H-pyrazol-3-yl)-1H-indole] gave an IC50 of 87 nM.
As for `Cn1nc(C(F)(F)F)cc1-c1ccc2[nH]c(-c3ccncc3F)cc2c1` [Example 44, 2-(3-Fluoro-pyridin-4-yl)-5-(2-methyl-5-trifluoromethyl-2H-pyrazol-3-yl)-1H-indole], it took 169 nM to reach half-maximal inhibition (IC50).
For `Cc1noc(C)c1-c1cc2cc(-c3cc(C(F)(F)F)nn3C)ccc2[nH]1` [Example 45, 2-(3,5-Dimethyl-isoxazol-4-yl)-5-(2-methyl-5-trifluoromethyl-2H-pyrazol-3-yl)-1H-indole], the midpoint of inhibition, the IC50, lay at 375 nM.
Consider `CCn1nc(C(F)(F)F)cc1-c1ccc2[nH]c(-c3c(F)cccc3F)cc2c1` [Example 46, 2-(2,6-Difluoro-phenyl)-5-(2-ethyl-5-trifluoromethyl-2H-pyrazol-3-yl)-1H-indole], for which the IC50 came to 44 nM.
`CCn1nc(C(F)(F)F)cc1-c1ccc2[nH]c(-c3c(F)cccc3Cl)cc2c1` [Example 47, 2-(2-Chloro-6-fluoro-phenyl)-5-(2-ethyl-5-trifluoromethyl-2H-pyrazol-3-yl)-1H-indole] showed an IC50 of 40 nM.
`Cn1nc(C(F)(F)F)cc1-c1ccc2[nH]c(-c3c(F)cccc3Cl)cc2c1` [Example 48, 2-(2-Chloro-6-fluoro-phenyl)-5-(2-methyl-5-trifluoromethyl-2H-pyrazol-3-yl)-1H-indole] showed an IC50 of 12 nM.
`CCn1nc(-c2cccnc2)cc1-c1ccc2[nH]c(-c3c(F)cccc3Cl)cc2c1` [Example 49, 2-(2-Chloro-6-fluoro-phenyl)-5-(2-ethyl-5-pyridin-3-yl-2H-pyrazol-3-yl)-1H-indole] showed an IC50 of 13 nM.
Molecule `Cc1sc(-c2cccnc2)nc1-c1ccc2[nH]c(-c3c(F)cccc3Cl)cc2c1` [Example 50, 2-(2-Chloro-6-fluoro-phenyl)-5-(5-methyl-2-pyridin-3-yl-thiazol-4-yl)-1H-indole] came in with an IC50 of 13 nM.
The figure for `Cn1nc(-c2ccncc2)cc1-c1ccc2[nH]c(-c3c(F)cccc3Cl)cc2c1` [Example 51, 2-(2-Chloro-6-fluoro-phenyl)-5-(2-methyl-5-pyridin-4-yl-2H-pyrazol-3-yl)-1H-indole] is 524 nM; for `Cc1cc(-c2ncco2)ccc1-c1ccc2[nH]c(-c3c(F)cccc3Cl)cc2c1` [Example 52, 2-(2-Chloro-6-fluoro-phenyl)-5-(2-methyl-4-oxazol-2-yl-phenyl)-1H-indole] it is 62 nM; for `COC(=O)c1ccc(-c2ccc3[nH]c(-c4c(F)cccc4Cl)cc3c2)c(C)c1` [Example 53, 4-[2-(2-Chloro-6-fluoro-phenyl)-1H-indol-5-yl]-3-methyl-benzoic acid methyl ester] it is 14 nM.
For `COc1ccc(-c2ccc3[nH]c(-c4c(F)cccc4Cl)cc3c2)c(OC)c1` [Example 54, 2-(2-chloro-6-fluoro-phenyl)-5-(2,4-dimethoxy-phenyl)-1H-indole], the IC50 was found to be 33 nM.
As for `Fc1cccc(Cl)c1-c1cc2cc(-c3ccc(C(F)(F)F)cc3C(F)(F)F)ccc2[nH]1` [Example 55, 5-(2,4-Bis-trifluoromethyl-phenyl)-2-(2-chloro-6-fluoro-phenyl)-1H-indole], half-maximal inhibition (IC50) was put at 79 nM.
Molecule `Fc1cccc(Cl)c1-c1cc2cc(-c3ccc(C(F)(F)F)cc3Cl)ccc2[nH]1` [Example 56, 2-(2-Chloro-6-fluoro-phenyl)-5-(2-chloro-4-trifluoromethyl-phenyl)-1H-indole] gave an IC50 of 132 nM.
`Cc1sc(-c2ccccn2)nc1-c1ccc2[nH]c(-c3ccc(F)cc3Cl)cc2c1` [Example 57, 2-(2-Chloro-4-fluoro-phenyl)-5-(5-methyl-2-pyridin-2-yl-thiazol-4-yl)-1H-indole]: the IC50 came out at 301 nM.
Turning to `Cc1sc(-c2ccccn2)nc1-c1ccc2[nH]c(-c3cc(F)ccc3Cl)cc2c1` [Example 58, 2-(2-Chloro-5-fluoro-phenyl)-5-(5-methyl-2-pyridin-2-yl-thiazol-4-yl)-1H-indole], the IC50 stood at 689 nM.
Regarding `Cn1nc(C(F)(F)F)cc1-c1ccc2[nH]c(-c3ccccc3Cl)cc2c1` [Example 59, 2-(2-Chloro-phenyl)-5-(2-methyl-5-trifluoromethyl-2H-pyrazol-3-yl)-1H-indole], the half-inhibitory concentration (IC50) was determined as 105 nM.
With `Cc1ccccc1-c1cc2cc(-c3cc(C(F)(F)F)nn3C)ccc2[nH]1` [Example 60, 5-(2-Methyl-5-trifluoromethyl-2H-pyrazol-3-yl)-2-o-tolyl-1H-indole], 140 nM corresponded to half-maximal inhibition (IC50).
The value for `Cn1nc(C2CC2)cc1-c1ccc2[nH]c(-c3ccccc3Cl)cc2c1` [Example 61, 2-(2-Chloro-phenyl)-5-(5-cyclopropyl-2-methyl-2H-pyrazol-3-yl)-1H-indole] was 848 nM.
As for `Cc1ccccc1-c1cc2cc(-c3cc(C4CC4)nn3C)ccc2[nH]1` [Example 62, 5-(5-Cyclopropyl-2-methyl-2H-pyrazol-3-yl)-2-o-tolyl-1H-indole], the IC50 amounted to 964 nM.
The value for `Cn1nc(C2CC2)cc1-c1ccc2[nH]c(-c3c(F)cccc3F)cc2c1` [Example 63, 5-(5-Cyclopropyl-2-methyl-2H-pyrazol-3-yl)-2-(2,6-difluoro-phenyl)-1H-indole] was 368 nM; that for `Cc1sc(-c2cccnc2)nc1-c1ccc2[nH]c(-c3ccncc3F)cc2c1` [Example 64, 2-(3-Fluoro-pyridin-4-yl)-5-(5-methyl-2-pyridin-3-yl-thiazol-4-yl)-1H-indole] was 81 nM; that for `COC(=O)c1ccc(-c2cc3cc(-c4nc(-c5cccnc5)sc4C)ccc3[nH]2)c(C)c1` [Example 65, Methyl-4-[5-(5-methyl-2-pyridin-3-yl-thiazol-4-yl)-1H-indol-2-yl]-benzoic acid methyl ester] was 71 nM.
`COc1cc(F)c(-c2cc3cc(-c4nc(-c5cccnc5)sc4C)ccc3[nH]2)c(F)c1` [Example 66, 2-(2,6-Difluoro-4-methoxy-phenyl)-5-(5-methyl-2-pyridin-3-yl-thiazol-4-yl)-1H-indole]: the IC50 is 33 nM.
The figure for `Cc1sc(-c2cccnc2)nc1-c1ccc2[nH]c(-c3ccc(F)cc3Cl)cc2c1` [Example 67, 2-(2-Chloro-4-fluoro-phenyl)-5-(5-methyl-2-pyridin-3-yl-thiazol-4-yl)-1H-indole] is 63 nM.
